Data from article PMC8152350, “High cytotoxicity of betulin towards fish and murine fibroblasts: Is betulin safe for nonneoplastic cells?” (BMC Veterinary Research, 2021).
Converted amounts (≈) assume the structure as drawn.

Experiments:
[1] = MTT assay (mitochondrial activity), murine fibroblasts; conditions: mouse
Protocol: (§1) NIH/3T3 (ATCC CRL-1658) mouse embryonic fibroblasts were grown in Dulbecco’s modified Eagle’s medium (DMEM) supplemented with 2 mM glutamine, 10 % foetal bovine serum and a 1 % antibiotic-antimycotic solution at 37 °C in a humidified atmosphere with 5 % CO2.
(§2) NIH/3T3 and BF-2 cells were seeded in 96-well plates at a density of 1 × 10^4 or 2 × 10^4 cells per well, respectively. After 24 h of incubation at an appropriate temperature, cells were exposed to betulin at the concentrations mentioned above for 24, 48 and 72 h. Control (untreated) cells served as the negative control and a reference point. Triton X-100 treated cells served as the positive internal control in MTT, NRU and LDH assays. Due to the specific character of SRB assay, there was no positive control in this test. After 24, 48 and 72 h of treatment, the four different cytotoxicity assays were performed. All experiments were repeated three times.
(§3) The MTT assay is used to estimate mitochondrial damage, since it determines the activity of mitochondrial enzymes. These enzymes reduce the water-soluble tetrazolium dye MTT to insoluble purple formazan, which accumulates inside viable cells.
(§4) The MTT assay was conducted using the protocol described by Mosmann, with some modifications described in our previous article.
(§5) The MTT assay was used to determine the cytotoxicity of both betulin and the vehicle (DMSO).
(§6) All experiments were repeated three times. […] Statistical analyses were performed using GraphPad Prism software (GraphPad Software, USA). Data were subjected to one-way analysis of variance (ANOVA). Dunnett’s posttest was used to determine differences between control and betulin-exposed cells at the same time points. Differences between the two cell lines at the same time points were determined using Student’s t-test. The 50 % cytotoxic concentrations (CC50, defined as the concentration of the compound that reduced cell viability by 50 %) were calculated using the Quest Graph™ ED50 Calculator (AAT Bioquest, Inc.).

[2] = system: NIH/3T3 cells; assay: as above
Protocol: as §1, §2, §3, §4, §5, §6

[3] = NRU assay (lysosomal membrane integrity), murine fibroblasts; format: cell-based, mouse; conditions: mouse, NIH/3T3 embryonic fibroblasts, n = 3
Protocol: (§7) All experiments were repeated three times.
(§8) The NRU assay evaluates lysosomal membrane integrity. It measures neutral red dye accumulation within lysosomes of viable cells.
(§9) The NRU assay was performed using a commercially available kit (TOX4) (Sigma-Aldrich, Poland) according to the manufacturer’s protocol. The full description of the test procedure was also provided in a published article.

[4] = system: NIH/3T3 cells; assay: as above; format: cell-based, mouse; conditions: NIH/3T3, beginning at 48 h
Protocol: as §7, §8, §9

[5] = SRB assay (total cellular protein content), fish fibroblasts; format: cell-based, bluegill; conditions: bluegill, BF-2 caudal trunk fibroblasts, n = 3
Protocol: (§10) BF-2 (ATCC CCL-91) bluegill caudal trunk fibroblasts were grown in minimum essential medium (Eagle, EBSS) supplemented with 1 % nonessential amino acids (NEAAs), 10 % foetal bovine serum and 1 % antibiotic-antimycotic solution at 23 °C in a humidified atmosphere with 5 % CO2.
as §7
(§11) The sulforhodamine B colorimetric assay measures the cellular protein content, and the assay results are proportional to the number of cells.
(§12) The SRB assay was performed using a commercially available kit (TOX6) (Sigma-Aldrich, Poland) according to the manufacturer’s protocol. In this assay, SRB binds to protein components of trichloroacetic acid-fixed cells, and the protein-bound dye is extracted with Tris. The results obtained are presented as the percentage of the total cellular protein content in control (nontreated) cells.

[6] = system: BF-2 cells; assay: as above; format: cell-based, bluegill; conditions: BF-2
Protocol: as §10, §7, §11, §12

[7] = Solubility of betulin in DMSO; format: physicochemical; conditions: organic solvent or mixture, thermodynamic from solid, room temperature, read-out: maximum solubility of betulin in DMSO
Protocol: We were able to dissolve 5000 µg of betulin in 1 mL of DMSO, although it required heating, and the solution remained unstable. After mixing with the cell culture medium, the solution immediately became slightly turbid.
A stock solution of betulin was prepared in DMSO at a concentration of 2500 µg/mL, and working solutions were prepared in cell maintenance media (serum-free) at final concentrations of 0 (control cells), 0.244, 0.488, 0.976, 1.95, 3.9, 7.8, 15.625 and 31.25 µg/mL immediately before use in cell culture.

[8] = system: B16 cells (B164A5 and B16F10); design: method as in PMID 25756279; conditions: 150 µM betulin; cited from earlier work
[9] = system: B16 cells (B164A5 and B16F10); design: method as in PMID 25756279; conditions: B16 melanoma cells; cited from earlier work
[10] = system: HL60; design: method as in PMID 12697374; conditions: HL60 leukaemia; read-out: IC50 of betulin; cited from earlier work
[11] = system: A-549; design: method as in PMID 16787747; conditions: read-out: IC50 of betulin; cited from earlier work
[12] = system: DLD-1; design: method as in PMID 16787747; conditions: read-out: IC50 of betulin; cited from earlier work
[13] = system: MCF-7 (breast cancer); design: method as in PMID 22627971, PMID 23379693; conditions: MCF-7, 20 µM; cited from earlier work
[14] = system: porcine chondrocytes; conditions: cited from earlier work
[15] = system: human skin fibroblasts (HSF); conditions: 24-h exposure, cited from earlier work

C=C(C)[C@@H]1CC[C@]2(CO)CC[C@]3(C)[C@H](CC[C@@H]4[C@@]5(C)CC[C@H](O)C(C)(C)[C@@H]5CC[C@]43C)[C@@H]12 [betulin, Betulin]
CC50 at 24 h [1]: 1.532 ± 0.005 µg/mL (≈ 3.46 µM) | CC50 at 48 h [1]: 1.58 ± 0.64 µg/mL (≈ 3.58 µM) | CC50 at 72 h [1]: 1.85 ± 0.647 µg/mL (≈ 4.19 µM) | decrease in cell viability in the MTT assay ([2]; NIH/3T3, betulin 7.8 µg/mL, 72 h): approximately 80% | betulin concentration causing statistically significant decrease in viability (MTT) ([2]; mouse cells, 24 h, threshold persisted until termination of the experiment): ≥ 1.95 µg/mL | CC50 at 24 h ([3]; NIH/3T3, 24 h, read-out: CC50 betulin NRU 24 h): > 15.6 µg/mL | CC50 at 48 h ([3]; NIH/3T3, 48 h, mean ± SD, read-out: CC50 betulin NRU 48 h): 7.33 ± 2.94 µg/mL (≈ 16.6 µM) | CC50 at 72 h ([3]; NIH/3T3, 72 h, mean ± SD, read-out: CC50 betulin NRU 72 h): 13 ± 2.94 µg/mL (≈ 29.3 µM) | betulin concentration causing considerable decrease in viability (NRU) [4]: ≥ 3.9 µg/mL | CC50 at 24 h ([5]; BF-2, 24 h, read-out: CC50 betulin SRB 24 h): > 31.2 µg/mL | CC50 at 48 h ([5]; BF-2, 48 h, read-out: CC50 betulin SRB 48 h): > 31.2 µg/mL | CC50 at 72 h ([5]; BF-2, 72 h, read-out: CC50 betulin SRB 72 h): > 31.2 µg/mL | betulin concentration causing considerable decrease in the number of cells (SRB) [6]: at least 15.625 µg/mL | solubility [7]: 2500 µg/mL (≈ 5650 µM) | trypan blue exclusion capacity [8]: 60% | betulin concentration from which almost complete lack of cell mitochondrial activity was observed (MTT) [9]: ≥ 15 µM | IC50 [10]: 14.7 µM | IC50 [11]: 3.8 µM | IC50 [12]: 6.6 µM | inhibitory activity of betulin [13]: 53.2% | betulin concentrations not affecting integrity of the cytoplasmic membrane (LDH) [14]: up to 5.12 µg/mL | betulin concentrations causing considerable LDH leakage, converted ([15]; conversion of µM value): ≥ 4.4 µg/mL | betulin concentrations not toxic, converted ([15]; conversion of µM value): ≤ 2.2 µg/mL | betulin concentrations causing considerable LDH leakage [15]: ≥ 10 µM | betulin concentrations not toxic [15]: up to 5 µM
